Where “and” joins values, the source holds several entries; their conditions need not be identical. Equal entries are not always repeated.
Tests used:
Type in all cases: physicochemical
[1] = Chemical stability on storage: assay and impurities
Experimental: (§1) Samples of Example 2 and additional samples comprising micronized and non-micronized oxycodone useful for exemplary dosage forms are tested for their chemical stability and physical stability. Based on a comparison of stability data from micronized and non-micronized samples stored at both 25° C./60% RH and 40 C.°/75% RH, no differences are observed in the impurity profile through three months of study as shown in Tables 4 and 5 for exemplary lots. The impurities analyzed include (HOXY), 14-Hydroxycodeinone; (DHOXYN), 7,8-Dihydro-8,14-Dihydroxycodeinone; (DHOXY), 7,8-Dihydro-14-hydroxycodeine; (OXYE), Oxycodone ethylenolate; (OXYN), 1-Hydroxyoxycodone and Oxycodone N-oxide. Most of the impurities are found to be below the limit of quantitation (LOQ), except for HOXY and DHOXYN which were unchanged at 0.1%. […] The solid state stability of the micronized oxycodone is monitored for particle size, XRPD, DSC, and microscopy as shown in Table 6.

[2] = Physical stability on storage: particle size (Dv90) by laser diffraction
[3] = Particle size by optical microscopy, number % undersize; settings: mean diameter
Experimental: (§2) As a secondary analytical method, the micronized and the non-micronized oxycodone analyzed by laser diffraction with results shown in Table 1, were analyzed by optical microscopy to evaluate particle size and the results are shown in Table 2. Sample aliquots (˜50 mg for micronized and ˜225 mg for non-micronized) were dispersed in 10 ml of sunflower oil and viewed on a Nikon microscope equipped with a 10× objective. Particle size (mean diameter) was determined using Image Pro® Plus software and expressed as a number % undersize. The particle size values determined by optical microscopy as shown in Table 2 are consistent with the laser diffraction particle size data shown in Table 1.

[4] = Particle size distribution by laser diffraction (Malvern Mastersizer 2000), oxycodone base
[5] = Physical stability on storage: DSC onset melt
Experimental: The micronized lots may also be analyzed by Differential Scanning Calorimetry (DSC). DSC is performed on a TA instrument Q100 using a heating ramp from 25-235° C. at a rate of 5° C./min. […] The sharp endotherm observed is consistent with a crystalline material and the absence of other thermal events proves that there were no polymorph transformations during melting.
as §1

[6] = Physical stability on storage: microscopy
Experimental: as §2, §1

[7] = Table 1 analysis, lot 2 in duplicate
[8] = additional laser diffraction analysis, Table 3

## COc1ccc2c3c1O[C@H]1C(=O)CC[C@@]4(O)[C@@H](C2)N(C)CC[C@]314 [Lot 1, oxycodone]
[1]; 5° C./60% RH, 1 mo (Table 4)
  1-HydroxyOXY: <LOQ
[1]; 5° C./60% RH, 3 mo (Table 4)
  1-HydroxyOXY: <LOQ
[1]; 25° C./60% RH, 1 mo
  Assay: 98.9%
  DHOXY (7,8-Dihydro-14-hydroxycodeine): <LOQ
  DHOXYN (7,8-Dihydro-8,14-Dihydroxycodeinone): 0.10%
  HOXY (14-Hydroxycodeinone): 0.08%
  OXYE (Oxycodone ethylenolate): <LOQ
  OXYN: <LOQ
  Other (impurities; Table 5: >0.05%): <LOQ
  Total impurities: 0.18%
[1]; 25° C./60% RH, 3 mo
  Assay: 99.9%
  DHOXY (7,8-Dihydro-14-hydroxycodeine): <LOQ
  DHOXYN (7,8-Dihydro-8,14-Dihydroxycodeinone): 0.10%
  HOXY (14-Hydroxycodeinone): 0.08%
  OXYE (Oxycodone ethylenolate): <LOQ
  OXYN: <LOQ
  Other (impurities; Table 5: >0.05%): <LOQ
  Total impurities: 0.18%
[1]; 40° C./75% RH, 1 mo
  1-HydroxyOXY: <LOQ
  Assay: 100.0%
  DHOXY (7,8-Dihydro-14-hydroxycodeine): <LOQ
  DHOXYN (7,8-Dihydro-8,14-Dihydroxycodeinone): 0.10%
  HOXY (14-Hydroxycodeinone): 0.08%
  OXYE (Oxycodone ethylenolate): <LOQ
  OXYN: <LOQ
  Other (impurities; Table 5: >0.05%): <LOQ
  Total impurities: 0.18%
[1]; 40° C./75% RH, 3 mo
  1-HydroxyOXY: <LOQ
  Assay: 99.5%
  DHOXY (7,8-Dihydro-14-hydroxycodeine): <LOQ
  DHOXYN (7,8-Dihydro-8,14-Dihydroxycodeinone): 0.10%
  HOXY (14-Hydroxycodeinone): 0.08%
  OXYE (Oxycodone ethylenolate): <LOQ
  OXYN: <LOQ
  Other (impurities; Table 5: >0.05%): <LOQ
  Total impurities: 0.18%
[1]; Time 0
  1-HydroxyOXY: <LOQ
  Assay: 99.3%
  DHOXY (7,8-Dihydro-14-hydroxycodeine): <LOQ
  DHOXYN (7,8-Dihydro-8,14-Dihydroxycodeinone): 0.10%
  HOXY (14-Hydroxycodeinone): 0.08%
  OXYE (Oxycodone ethylenolate): <LOQ
  OXYN: <LOQ
  Other (impurities; Table 5: >0.05%): <LOQ
  Total impurities: 0.18%
[2]; 25° C./60% RH, 3 months
  Particle size (Dv90): 6 μ
[2]; 40° C./75% RH, 3 months
  Particle size (Dv90): 11 μ
[2]; Time 0
  Particle size (Dv90): 4 μ
[3]
  % ≦ 1μ: 30.5%
  % ≦ 5μ: 92.7%
  % ≦ 10μ: 99.5%
[4]; [7]
  Particle size (Dv10): 0.5 μ
  Particle size (Dv50): 1.4 μ
  Particle size (Dv90): 3.0 μ
[4]; [8]
  Particle size (Dv10): 0.7 μ
  Particle size (Dv50): 2.1 μ
  Particle size (Dv90): 5.1 μ
[5]; 25° C./60% RH, 3 mo
  DSC Onset Melt: 221.8 °C
[5]; 40° C./75% RH, 3 mo
  DSC Onset Melt: 221.9 °C
[5]; Time 0
  DSC Onset Melt: 222.0 °C
[6]; 25° C./60% RH, 3 mo
  Microscopy, ≦10 μ: 98.4%
[6]; 40° C./75% RH, 3 mo
  Microscopy, ≦10 μ: 98.2%
[6]; Time 0
  Microscopy, ≦10 μ: 99.5%

## COc1ccc2c3c1O[C@H]1C(=O)CC[C@@]4(O)[C@@H](C2)N(C)CC[C@]314 [Lot 2, oxycodone]
[1]; 5° C./60% RH, 1 mo (Table 4)
  1-HydroxyOXY: <LOQ
[1]; 5° C./60% RH, 3 mo (Table 4)
  1-HydroxyOXY: <LOQ
[1]; 25° C./60% RH, 1 mo
  Assay: 99.8%
  DHOXY (7,8-Dihydro-14-hydroxycodeine): <LOQ
  DHOXYN (7,8-Dihydro-8,14-Dihydroxycodeinone): 0.10%
  HOXY (14-Hydroxycodeinone): 0.08%
  OXYE (Oxycodone ethylenolate): <LOQ
  OXYN: <LOQ
  Other (impurities; Table 5: >0.05%): <LOQ
  Total impurities: 0.18%
[1]; 25° C./60% RH, 3 mo
  Assay: 99.8%
  DHOXY (7,8-Dihydro-14-hydroxycodeine): <LOQ
  DHOXYN (7,8-Dihydro-8,14-Dihydroxycodeinone): 0.10%
  HOXY (14-Hydroxycodeinone): 0.08%
  OXYE (Oxycodone ethylenolate): <LOQ
  OXYN: <LOQ
  Other (impurities; Table 5: >0.05%): <LOQ
  Total impurities: 0.18%
[1]; 40° C./75% RH, 1 mo
  1-HydroxyOXY: <LOQ
  Assay: 99.6%
  DHOXY (7,8-Dihydro-14-hydroxycodeine): <LOQ
  DHOXYN (7,8-Dihydro-8,14-Dihydroxycodeinone): 0.10%
  HOXY (14-Hydroxycodeinone): 0.08%
  OXYE (Oxycodone ethylenolate): <LOQ
  OXYN: <LOQ
  Other (impurities; Table 5: >0.05%): <LOQ
  Total impurities: 0.18%
[1]; 40° C./75% RH, 3 mo
  1-HydroxyOXY: <LOQ
  Assay: 99.2%
  DHOXY (7,8-Dihydro-14-hydroxycodeine): <LOQ
  DHOXYN (7,8-Dihydro-8,14-Dihydroxycodeinone): 0.10%
  HOXY (14-Hydroxycodeinone): 0.08%
  OXYE (Oxycodone ethylenolate): <LOQ
  OXYN: <LOQ
  Other (impurities; Table 5: >0.05%): <LOQ
  Total impurities: 0.18%
[1]; Time 0
  1-HydroxyOXY: <LOQ
  Assay: 100.7%
  DHOXY (7,8-Dihydro-14-hydroxycodeine): <LOQ
  DHOXYN (7,8-Dihydro-8,14-Dihydroxycodeinone): 0.10%
  HOXY (14-Hydroxycodeinone): 0.08%
  OXYE (Oxycodone ethylenolate): <LOQ
  OXYN: <LOQ
  Other (impurities; Table 5: >0.05%): <LOQ
  Total impurities: 0.18%
[2]; 25° C./60% RH, 3 months
  Particle size (Dv90): 10 μ
[2]; 40° C./75% RH, 3 months
  Particle size (Dv90): 10 μ
[2]; Time 0
  Particle size (Dv90): 4 μ
[3]
  % ≦ 1μ: 25.3%
  % ≦ 5μ: 92.2%
  % ≦ 10μ: 99.5%
[4]; [7]
  Particle size (Dv10): 0.5, 0.5 μ
  Particle size (Dv50): 1.5 μ and 2.2 μ
  Particle size (Dv90): 3.1 μ and 5.1 μ
[4]; [8]
  Particle size (Dv10): 0.6 μ
  Particle size (Dv50): 2.1 μ
  Particle size (Dv90): 5.8 μ
[5]; 25° C./60% RH, 3 mo
  DSC Onset Melt: 221.8 °C
[5]; 40° C./75% RH, 3 mo
  DSC Onset Melt: 221.9 °C
[5]; Time 0
  DSC Onset Melt: 221.8 °C
[6]; 25° C./60% RH, 3 mo
  Microscopy, ≦10 μ: 99.5%
[6]; 40° C./75% RH, 3 mo
  Microscopy, ≦10 μ: 98.3%
[6]; Time 0
  Microscopy, ≦10 μ: 99.5%

## COc1ccc2c3c1O[C@H]1C(=O)CC[C@@]4(O)[C@@H](C2)N(C)CC[C@]314 [Lot 3, oxycodone]
[1]; 5° C./60% RH, 1 mo (Table 4)
  1-HydroxyOXY: <LOQ
[1]; 5° C./60% RH, 3 mo (Table 4)
  1-HydroxyOXY: <LOQ
[1]; 25° C./60% RH, 1 mo
  Assay: 98.5%
  DHOXY (7,8-Dihydro-14-hydroxycodeine): <LOQ
  DHOXYN (7,8-Dihydro-8,14-Dihydroxycodeinone): 0.10%
  HOXY (14-Hydroxycodeinone): 0.08%
  OXYE (Oxycodone ethylenolate): <LOQ
  OXYN: <LOQ
  Other (impurities; Table 5: >0.05%): <LOQ
  Total impurities: 0.18%
[1]; 25° C./60% RH, 3 mo
  Assay: 98.5%
  DHOXY (7,8-Dihydro-14-hydroxycodeine): <LOQ
  DHOXYN (7,8-Dihydro-8,14-Dihydroxycodeinone): 0.10%
  HOXY (14-Hydroxycodeinone): 0.08%
  OXYE (Oxycodone ethylenolate): <LOQ
  OXYN: <LOQ
  Other (impurities; Table 5: >0.05%): <LOQ
  Total impurities: 0.18%
[1]; 40° C./75% RH, 1 mo
  1-HydroxyOXY: <LOQ
  Assay: 100.1%
  DHOXY (7,8-Dihydro-14-hydroxycodeine): <LOQ
  DHOXYN (7,8-Dihydro-8,14-Dihydroxycodeinone): 0.10%
  HOXY (14-Hydroxycodeinone): 0.08%
  OXYE (Oxycodone ethylenolate): <LOQ
  OXYN: <LOQ
  Other (impurities; Table 5: >0.05%): <LOQ
  Total impurities: 0.18%
[1]; 40° C./75% RH, 3 mo
  1-HydroxyOXY: <LOQ
  Assay: 99.5%
  DHOXY (7,8-Dihydro-14-hydroxycodeine): <LOQ
  DHOXYN (7,8-Dihydro-8,14-Dihydroxycodeinone): 0.10%
  HOXY (14-Hydroxycodeinone): 0.08%
  OXYE (Oxycodone ethylenolate): <LOQ
  OXYN: <LOQ
  Other (impurities; Table 5: >0.05%): <LOQ
  Total impurities: 0.18%
[1]; Time 0
  1-HydroxyOXY: <LOQ
  Assay: 100.4%
  DHOXY (7,8-Dihydro-14-hydroxycodeine): <LOQ
  DHOXYN (7,8-Dihydro-8,14-Dihydroxycodeinone): 0.11%
  HOXY (14-Hydroxycodeinone): 0.07%
  OXYE (Oxycodone ethylenolate): <LOQ
  OXYN: <LOQ
  Other (impurities; Table 5: >0.05%): <LOQ
  Total impurities: 0.18%
[2]; 25° C./60% RH, 1 month
  Particle size (Dv90): 9 μ
[2]; 25° C./60% RH, 3 months
  Particle size (Dv90): 10 μ
[2]; 25° C./60% RH, 6 months
  Particle size (Dv90): 10 μ
[2]; 25° C./60% RH, 9 months
  Particle size (Dv90): 8 μ
[2]; 25° C./60% RH, 12 months
  Particle size (Dv90): 8 μ
[2]; 40° C./75% RH, 1 month
  Particle size (Dv90): 9 μ
[2]; 40° C./75% RH, 3 months
  Particle size (Dv90): 11 μ
[2]; 40° C./75% RH, 6 months
  Particle size (Dv90): 10 μ
[2]; Time 0
  Particle size (Dv90): 6 μ
[5]; 25° C./60% RH, 3 mo
  DSC Onset Melt: 221.9 °C
[5]; 40° C./75% RH, 3 mo
  DSC Onset Melt: 221.9 °C
[6]; 25° C./60% RH, 3 mo
  Microscopy, ≦10 μ: 98.3%
[6]; 40° C./75% RH, 3 mo
  Microscopy, ≦10 μ: 94.5%

Source: patent US9339463B2, “Micronized opioid compositions having a specific particle size distribution” (priority 2007, dated 2016)
